Test results published in ChEMBL document CHEMBL4888484, “Replenishing the malaria drug discovery pipeline: Screening and hit evaluation of the MMV Hit Generation Library 1 (HGL1) against asexual blood stage Plasmodium falciparum ,using a nano luciferase reporter read-out” (2022).

What was measured:
[1] = system: Plasmodium falciparum; assay: Hit confirmation in dose-response curve in NF54 nanoGlo assay, at 72h; type: functional, organism-based, Erythrocyte; set-up: timepoint 72 hour; details: Plasmodium falciparum, NF54, Erythrocyte, 72 h
[2] = system: Plasmodium falciparum; assay: Hit confirmation in dose-response curve in NF54 pLDH assay, at 72h; type: functional, organism-based; set-up: timepoint 72 hour; details: NF54, Erythrocyte
[3] = system: Plasmodium falciparum; assay: Hit confirmation in dose-response curve in Dd2 pLDH assay, at 72h; type: functional, organism-based; set-up: timepoint 72 hour; details: Dd2, Erythrocyte
[4] = system: Plasmodium falciparum; assay: Re-testing in dose-response curve in 3D7 pLDH assay, at 72h; type: functional, organism-based; set-up: timepoint 72 hour; details: 3D7, Erythrocyte
[5] = Re-testing in dose-response curve in HepG2 cytotoxicity assay, at 72h; type: toxicity, cell-based; set-up: timepoint 72 hour; details: human, HepG2 cells
[6] = system: Plasmodium falciparum; assay: Hit confirmation in dose-response curve in NF54 nanoGlo assay, at 12h; type: functional, organism-based, Erythrocyte; set-up: timepoint 12 hour; details: Plasmodium falciparum, NF54, Erythrocyte, 12 h
[7] = Hit confirmation in dose-response curve in HepG2 cytotoxicity assay, at 72h; type: toxicity, cell-based; set-up: timepoint 72 hour; details: human, HepG2 cells

| IC50 [1] [nM] | IC50 [2] [nM] | IC50 [3] [nM] | IC50 [4] [nM] | IC50 [6] [nM] | SMILES | IC50 at 72 h [5] [nM] | IC50 at 72 h [7] [nM] |
| --- | --- | --- | --- | --- | --- | --- | --- |
| 501 | 2040 | 871 | 289 | > 10000 | COc1ccc(-c2cc(C(=O)N[C@H]3CCN(c4ccc(=O)[nH]n4)C3)c(C)n2C)cc1 | > 25000 | > 10000 |
| 1120 | 1480 | 1230 | 943 | > 10000 | Cc1cnccc1NCCNCc1cccc(O)c1Cl | > 25000 | > 10000 |
| 1410 | 1260 | 1380 | 1010 | 3020 | Clc1ccc(COc2ccc(Cl)cc2CNCCCn2ccnc2)c(Cl)c1 | 6110 | > 10000 |
| 1150 | 2090 | 1780 | 392 | > 10000 | Cc1cc(NC(=O)C(=O)NC2CC(C)CC(C)(C)C2)n(-c2nc3c(c(=O)[nH]2)CCC3)n1 (stereo not drawn) | 118 | > 10000 |
| 457 | 1170 | 741 | 118 | > 10000 | COc1ccc(C(=O)N2c3ncnn3C(c3ccccc3)CC2c2ccc(C)cc2)cc1OC (stereo not drawn) | > 25000 | > 10000 |
| 1620 | 1290 | 1700 | 3000 | 2820 | Cc1ccnc(Nc2ccc(N3CCNCC3)nn2)c1 | > 25000 | > 10000 |
| 3020 | 1200 | 1320 | 702 | > 10000 | CCCCN(CC)CCNC(=O)C1CCN(C2=NS(=O)(=O)C(c3ccc(OC)cc3)=C2C)CC1 | > 25000 | > 10000 |
| 4570 | 1020 | 646 | 321 | 7080 | Cc1cnccc1NCCNC1CCN(c2ccc3c(c2)CCC3)CC1 | 5420 | 8130 |
| 832 | 871 | 1120 | 575 | 1000 | Nc1ncc(C(=O)N2CCC3(CCCCCC3)C2)s1 | > 25000 | > 10000 |
| 692 | 1290 | 1230 | 2150 | 2040 | C[C@H]1CCN(c2nc(-c3ccccn3)nc3c2CCC3)C1 | 4750 | > 10000 |
| 630 | 2750 | 1100 | 4930 | 1070 | COc1ccccc1C(=O)NC1=NN2C(=NC(c3ccc(Cl)cc3)=C[C@H]2c2ccc(Cl)cc2)N1 | > 25000 | > 10000 |
| 724 | 1020 | 1000 | 488 | 1580 | Cc1noc(C)c1CN1C[C@@H]2Oc3cc(F)ccc3C(=O)N(C)[C@@H]2C1 | > 25000 | > 10000 |
| 100 | 151 | 100 | 113 | 631 | CC(C)c1cc(CN(Cc2cc(C(C)C)c(O)c(C(C)C)c2)C2CCCCC2)cc(C(C)C)c1O | > 8330 | > 10000 |
| 1450 | 1780 | 1700 | 15600 | 4900 | COc1ccnc(CN2CCC[C@H](c3nc(-c4ccccc4)c[nH]3)C2)c1OC | 10200 | > 10000 |
| 251 | 1100 | 955 | 2110 | > 10000 | Nc1c(-c2nc3ccccc3[nH]2)c2nc3ccccc3nc2n1Cc1ccccc1F | 24700 | > 10000 |
| 831 | 1410 | 1780 | 1080 | 1510 | Cc1ccc(NC(=O)c2c(C)nc3sc(C(=O)NCc4ccccc4)c(N)c3c2-c2ccccc2Cl)c(C)c1 | > 25000 | > 10000 |
| 1700 | 447 | 501 | 709 | > 10000 | NC(=NCc1cccc2cccnc12)N1CCN(c2nccs2)CC1 | > 25000 | > 10000 |
| 1100 | 2690 | 1200 | 1050 | > 10000 | C[C@H](N)c1ccc(Nc2ncc3cc(-c4ccncc4)ccc3n2)cc1 | 11400 | > 10000 |
| 2040 | 3310 | 2000 | 1100 | 2820 | N#Cc1cc(S(=O)(=O)NCCN(C2CC2)S(=O)(=O)c2ccc(Cl)c(C#N)c2)ccc1Cl | 13600 | > 10000 |

| IC50 [1] [nM] | IC50 [2] [nM] | IC50 [3] [nM] | IC50 [4] [nM] | IC50 [6] [nM] | SMILES | IC50 at 72 h [5] [nM] | IC50 at 72 h [7] [nM] |
| --- | --- | --- | --- | --- | --- | --- | --- |
| 2000 | 2000 | 1550 | 1150 | 7590 | Clc1cccc(CNCCCNc2ccncc2)c1Cl | 16300 | > 10000 |
| 2690 | 1350 | 1410 | 522 | > 10000 | CCC1=C(c2ccc(C)cc2)S(=O)(=O)N=C1N1CCC(C(=O)NCCN2CCCC[C@@H]2C)CC1 | > 25000 | > 10000 |
| 1050 | 3630 | 794 | 347 | > 10000 | COc1ccc(-c2cc(C(=O)N[C@H]3CCN(c4ccc(=O)n(C)n4)C3)c(C)n2C)cc1 | > 25000 | > 10000 |
| 776 | 1050 | 1020 | 5000 | 1320 | Oc1ccccc1-c1cnc(C(F)(F)F)s1 | 19400 | > 10000 |
| 195 | 309 | 269 | 429 | 257 | Oc1ccccc1CCN[C@H]1CCc2ccc(F)cc21 | > 25000 | > 10000 |
| 468 | 1410 | 1450 | 1710 | 1260 | C[C@H]1CCCN(c2nc(-c3ccccn3)nc3ccccc23)C1 | 1760 | > 10000 |
| 309 | 282 | 1200 | 54.8 | 7240 | CCOc1cccc(-c2ccc3nc(-c4cccc(OC)c4)c(CCC(=O)NCCN4CCCC4)n3c2)c1 | 15900 | > 10000 |
| 1580 | 3160 | 1740 | 5090 | 3090 | Cc1ccc(Nc2ccc(N3CCNCC3)nn2)nc1 | > 25000 | > 10000 |
| 562 | 1020 | 977 | 3230 | 891 | CC(C)CC[C@@H](CCNCCN(C)C)c1ccc(Cl)cc1 | 14900 | > 10000 |
| 1480 | 3310 | 1480 | 545 | > 10000 | CN(CCNC(=O)CCc1cn(-c2ccccc2)nc1-c1ccc2c(c1)OCO2)C1CCCCC1 | ~9240 | > 10000 |
| 145 | 174 | 132 | 3650 | > 10000 | CCOC(=O)c1c(CN2CCCC2)n(C)c2cc(-c3cccnc3)c(O)c(Cn3ccnc3)c12 | > 25000 | > 10000 |
| 550 | 759 | 661 | 267 | 851 | CC1(C)OCc2cc(CNc3ccc4oc(=O)[nH]c4c3)ccc2O1 | 20400 | > 10000 |
| 741 | 562 | 1170 | ~467 | 1510 | Clc1ccc(Cn2cc(CNCCCn3ccnc3)c3ccccc32)c(Cl)c1 | 3900 | > 10000 |
| 759 | 2950 | 1230 | 6520 | 1100 | COc1ccc([C@@H]2C=C(c3ccc(Cl)cc3)N=C3NC(NC(=O)c4ccccc4OC)=NN32)cc1 | > 25000 | > 10000 |
| 1910 | 4370 | 977 | 2490 | > 10000 | CCc1ccc(C(=O)NCCCC2CCCC2O)cc1S(=O)(=O)N1CCOCC1 (stereo not drawn) | > 25000 | > 10000 |
| 525 | 1200 | 708 | ~377 | > 10000 | CN(C)Cc1ccc(NC(=O)c2cc(F)cc3c(=O)c4cc(F)ccc4[nH]c23)cc1 | 2860 | > 10000 |
| 1230 | 1820 | 1550 | 1280 | 1730 | COc1cccc(-c2cc(O)cc(CC[C@H]3CCCCN3)c2)n1 | > 25000 | > 10000 |
| 1550 | 2820 | 1550 | 751 | 6460 | COc1ccc(CC(=O)Nc2cc(C)n(-c3cccc(Cl)c3)n2)cc1 | > 25000 | > 10000 |

| SMILES | IC50 [1] [nM] | IC50 [2] [nM] | IC50 [3] [nM] | IC50 [4] [nM] | IC50 [6] [nM] | IC50 at 72 h [5] [nM] | IC50 at 72 h [7] [nM] |
| --- | --- | --- | --- | --- | --- | --- | --- |
| Cc1ccc2c(c1)CCCN2C(=O)CN1CC=C(c2cnn(C)c2)CC1 | 3720 | 3800 | 1740 | 777 | > 10000 | > 25000 | > 10000 |
| CC(=O)N(C1CCN(Cc2ccccc2)CC1)C1(C(=O)Nc2ccc3[nH]ccc3c2)CCN(C)CC1 | 1660 | 1260 | 1230 | 1230 | 3980 | > 25000 | > 10000 |
